Test [1] concerns the target streptavidin (Streptomyces avidinii, UniProt P22629). Put plainly: Cyclic voltammetry of electrochemically-labeled peptide binding to a streptavidin coated electrode. The following applies: electrochemically-labeled peptide plus mediator; described in present tense. The method, then: (§1) Protein crosslinking to the prepared electrode was then performed as follows. A 50 μL aliquot of a 5 mM solution of 1-(3-dimethylaminopropyl)-3-ethylcarbodiimide was placed on one side of the electrode and dried at room temperature. […] of a 4 mg/mL solution of a fusion protein in phosphate buffered saline (PBS)/0.1% Tween 20 was placed on the surface of the dried electrode previously treated with carbodiimide and incubated at 4° C. overnight to allow crosslinking to proceed. After this incubation, electrodes were washed once with a solution of 100 mM Tris-HCl (pH8.0)/100 mM NaCl for 5 min. and kept in PBS at 4° C. until used.
(§2) Cyclic voltammograms were collected using an EG&G PAR 273A potentiostat/galvanostat with a single compartment voltammetric cell equipped with a modified tin-doped indium oxide (ITO) working electrode (area=0.32 cm^2), platinum (Pt)-wire counter electrode and silver/silver chloride (Ag/AgCl) reference electrode (see Johnston et al, 1994, Inorg. Chem. 33: 6388-6390). An example of such a voltammogram is shown in FIG. 7 and was generated under the following conditions. A sample containing 50 mM Ru(NH3)6^3+ and 20 mM Ru(NH3)5^3+-labeled peptide dissolved in buffered aqueous solutions containing 50 mM sodium phosphate buffer (pH 6.8)/700 mM NaCl (having a total sodium ion concentration of 780 mM) was scanned at a rate of 15 mV/s. After scans with the electrochemically labeled peptide, the electrode was rinsed with the same 50 mM sodium phosphate buffer solution, and then with 50 mM Ru(NH3)6^3+ or an unlabeled peptide solution containing 50 mM Ru(NH3)6^3+. Cyclic voltammograms were obtained with 50 mM Ru(NH3)6^3+ after washing. […] A freshly prepared electrode was used for each experiment and a background scan of buffer alone was collected for each electrode and subtracted from subsequent scans.
Electrodes are prepared by coating with the GST-Src SH3 fusion protein described above or with streptavidin using the procedures described in Example 2. […]

For test [2], the target named is MDM2 (Homo sapiens, UniProt Q00987). Briefly: Cyclic voltammetry of electrochemically-labeled peptide binding to an MDM2 coated electrode. The following applies: electrochemically-labeled peptide plus mediator; described in present tense. The method, then:
as §1
Cyclic voltammograms were collected using an EG&G PAR 273A potentiostat/galvanostat with a single compartment voltammetric cell equipped with a modified tin-doped indium oxide (ITO) working electrode (area=0.32 cm^2), platinum (Pt)-wire counter electrode and silver/silver chloride (Ag/AgCl) reference electrode (see Johnston et al, 1994, Inorg. Chem. 33: 6388-6390). An example of such a voltammogram is shown in FIG. 7 and was generated under the following conditions. A sample containing 50 mM Ru(NH3)6^3+ and 20 mM Ru(NH3)5^3+-labeled peptide dissolved in buffered aqueous solutions containing 50 mM sodium phosphate buffer (pH 6.8)/700 mM NaCl (having a total sodium ion concentration of 780 mM) was scanned at a rate of 15 mV/s. […]

Test [3] has as its target T1, GST-Src SH3 fusion protein (Homo sapiens, UniProt P12931).
T1 construct: made in house
Briefly: Cyclic voltammetry of electrochemically-labeled peptide binding to a GST-Src SH3 coated electrode. The following applies: for specific cyclic voltammetry signal at GST-Src SH3 electrode: electrochemically-labeled peptide plus mediator, described in present tense. The method, then: Tin-doped indium oxide electrodes were purchased (Delta Technologies) as 2 cm^2 square glass slides and prepared for use as follows. The electrode was cleaned by sonication treatment in a laboratory sonicator by sequential treatment in Alkonox, neat isopropyl alcohol, distilled and deionized water (three times), and finally the desired buffer; each sonication treatment having been performed for 10 min. The cleaned electrodes were then immersed in a 5 mM solution of 1,12-dodecadicarboxylic acid and incubated at room temperature for 48-72 hours, followed by rinsing the electrodes with hexane (Analytical grade).
as §1, §2
The electrochemical analysis apparatus and methods of the invention were used to detect and analyze the specific binding interaction between the Src SH3 domain and a specific binding SH3 peptide as follows. […]

The target in test [4] is T2, src SH3 domain (Homo sapiens, UniProt P12931).
T2 construct: The src SH3 domain was immobilized in a hydrogel as described above in Section A
Put plainly: Chronoamperometry of SA/B-HRP conjugated surrogate ligand binding to a src SH3 hydrogel electrode. The following applies: 100 mV. Here is the method:
The electrochemical analytic methods and apparati of the invention are used to detect protein:peptide interactions in a complex mixture. A variety of different target molecules and purchased from Polysciences (Warrington, Pa.). The redox polymer poly(1-vinylimidazole), modified with Os bipyridine redox centers (PVI-Os) was synthesized as described by Ohara et al. (1993, Anal. Chem. 65: 3512-3517). Specifically, hydrogels were prepared by mixing together 5 μL of each of the following solutions: a solution of a first member of a biological binding pair, typically comprising a receptor protein or fragment at a concentration of 4-6 mg/mL protein; 10 mg/mL PVI-Os, and 2.5 mg/mL PEGDGE. A 1 μL aliquot of the mixture was then spread on the surface of the glassy carbon electrodes. The hydrogel coated electrodes were cured overnight at room temperature prior to use.
The src SH3 domain was immobilized in a hydrogel as described above in Section A. This electrode was then used for electrochemical detection of surrogate ligand binding using a surrogate ligand prepared as follows.
A complex of streptavidin (SA) (Sigma Chemical Co., St. Louis, Mo.), biotinylated horseradish peroxidase (B-HRP) (Sigma) and biotinylated src SH3 surrogate ligand (His-Gly-Ser-Gly-Ser-Phe-Ser-His-Pro-Gln-Asn-Thr; SEQ ID No. 2) was prepared as follows. […]

The test system of test [5] is Tyrosine aminoacyl tRNA synthetase (tyrRS). Put plainly: Chronoamperometry of SA/B-HRP conjugated surrogate ligand binding to, and inhibitor displacement from, a tyrRS hydrogel electrode.

Where no end group is shown, it is not given here. The star is where a group is joined. Biotin = O=C1N[C@H]2[C@H](CS[C@H]2CCCCC(=O)*)N1

Chain of streptavidin (P22629 25-183): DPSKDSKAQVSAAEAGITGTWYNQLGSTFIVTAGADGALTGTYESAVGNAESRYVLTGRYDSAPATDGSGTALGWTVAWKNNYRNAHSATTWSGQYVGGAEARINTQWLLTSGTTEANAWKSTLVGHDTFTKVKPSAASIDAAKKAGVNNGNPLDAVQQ
Chain of MDM2 (Q00987 whole entry, species assumed): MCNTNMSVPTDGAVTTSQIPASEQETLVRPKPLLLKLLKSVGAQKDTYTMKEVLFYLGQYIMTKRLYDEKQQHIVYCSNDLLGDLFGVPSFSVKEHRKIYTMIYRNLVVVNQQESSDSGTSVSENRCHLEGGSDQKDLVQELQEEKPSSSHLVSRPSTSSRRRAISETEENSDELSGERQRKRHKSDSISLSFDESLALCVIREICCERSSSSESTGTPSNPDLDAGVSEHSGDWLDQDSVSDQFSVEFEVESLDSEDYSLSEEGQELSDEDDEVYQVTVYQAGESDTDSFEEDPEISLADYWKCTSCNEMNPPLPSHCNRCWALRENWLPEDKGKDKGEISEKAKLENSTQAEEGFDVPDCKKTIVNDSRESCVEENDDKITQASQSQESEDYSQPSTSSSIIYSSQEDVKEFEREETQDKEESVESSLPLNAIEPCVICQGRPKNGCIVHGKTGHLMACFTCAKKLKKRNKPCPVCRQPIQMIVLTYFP

As for Biotin-HHSGSGSQTFSDLWKL [p53 peptide], the “specific cyclic voltammetry signal at streptavidin electrode” value in test [1] was “No specific interaction is detected”. Further, the “specific cyclic voltammetry signal at MDM2 electrode” value in test [2] is “Specific signals are detected”. Besides, the “specific cyclic voltammetry signal at GST-Src SH3 electrode” value in test [3] is “No specific interaction is detected”.

“Gly-His-Gly-Ser-Gly-Arg-Ala-Leu-Pro-Pro-Leu-Pro-Arg-Tyr-NH2 (GHGSGRALPPLPRY-NH2) [NPDF-1]”: the “specific cyclic voltammetry signal at streptavidin electrode” value in test [1] is given as “no specific signal is detected”. In addition, the “integrated cyclic voltammetry signal, mediator background subtracted” value in test [3] (GST-Src SH3 coated electrode compared with GST alone, Ru-labeled peptide, hexaamineruthenium(III) mediator, 2 hours incubation) is listed as “much higher signal”. The “specific cyclic voltammetry signal at GST-Src SH3 electrode” value in test [3] is “Specific signals are detected”.

As to HGSGSFSHPQNT [src SH3 surrogate ligand], in test [4] (100 μM H2O2, ligand added at t=600 sec (FIG. 8)), the “time at which current reaches plateau” value fell in the range of 1500 to 2000 s. Further, the “current upon addition of SA/B-HRP conjugated surrogate ligand” value in test [4] (100 μM H2O2, ligand added at t=600 sec to 1 μg/mL SA (FIG. 8)) was “an increase in current was detected”.

Consider “HGSGSFSHPQNT [streptavidin binding peptide]”, for which, in test [1], the “specific cyclic voltammetry signal at streptavidin electrode” value is reported as “Specific signals are detected”. Besides, in test [3], the “specific cyclic voltammetry signal at GST-Src SH3 electrode” value is reported as “no specific signal is detected”.

Take “LYSWPDEQYERPSGSGK [tyrRS surrogate ligand]”: the “binding rate constant (first order) for the tyrRS-surrogate ligand binding reaction” value in test [5] (from the single-exponential current rise of FIG. 9) was found to be 0.0012 s⁻¹. The “current upon addition of SA/B-HRP conjugated surrogate ligand” value in test [5] (tyrRS hydrogel electrode, conditions as for src SH3 (FIG. 9)) is reported as “current was detected”.

Source of the values: US20020012943A1, “ELECTROCHEMICAL PROBES FOR DETECTION OF MOLECULAR INTERACTIONS AND DRUG DISCOVERY” (priority 1997, published 2002).
